2 compounds from ChEMBL document CHEMBL1126845, “N-(carboxymethyl)-N-[3,5-bis(decyloxy)-phenyl]glycine (Ro 23-9358): a potent inhibitor of secretory phospholipases A2 with antiinflammatory activity” (J Med Chem, 1993) can be followed below.

The IC50 is the midpoint of a concentration-inhibition curve. In general, inhibition in vivo refers to how much of the control response was suppressed. Low readings indicate a weak effect, high ones a strong effect.

What all share (format): functional
Assay [1] has as its target T1, Phospholipase A2, membrane associated (Homo sapiens, UniProt P14555).
T1 sequence (P14555 whole entry): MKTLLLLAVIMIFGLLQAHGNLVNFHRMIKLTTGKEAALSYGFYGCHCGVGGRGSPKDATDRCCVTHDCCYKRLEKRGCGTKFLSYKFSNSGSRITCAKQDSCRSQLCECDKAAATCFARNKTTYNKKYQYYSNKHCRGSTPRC
The assay is described as follows: Tested for inhibitory activity against human synovial fluid PLA2 (HSF-PLA2).

For assay [2], the species on record is Rattus norvegicus. The assay is described as follows: Paw volume in rat during treatment period.
Assay [3] relates to Rattus norvegicus. The assay is described as follows: Paw swelling rats induced by Naja naja venom PLA2 when tested at 30 mg/kg ip. As to conditions: route intraperitoneal.
A short description of assay [4]: Tested for inhibitory activity against purified recombinant human placental PLA2 (r-hpPLA2).

For `CCCCCCCCCCOc1cc(OCCCCCCCCCC)cc(C(=O)O)c1`, the IC50 in assay [1] came out at 3000 nM.

In the case of `CCCCCCCCCCOc1cc(OCCCCCCCCCC)cc(N(CC(=O)O)CC(=O)O)c1`, the Paw volume in assay [2] came to 1 mL. In assay [3], the inhibition in vivo at 30 mg/kg amounted to 41%. Also, the IC50 stood at 230 nM in assay [1] and 87 nM in assay [4].
